Values joined by “and” are separate entries in the source; they are usually repeats but may differ in a detail not shown here. Equal entries are not always repeated.
Key:
PRMT7 = molecular target: T1, PRMT7 (Homo sapiens, UniProt Q9NVM4); assay: CBH-002 affinity curve, HEK293, PRMT7-NL fusion; type: cell-based; parameters: BRET, CBH-002 + DMSO / BRET, CBH-002 + GSK3326595: unit not given here; details: for BRET, CBH-002 + DMSO / BRET, CBH-002 + GSK3326595: Figure S2C PRMT7-NL, log([CBH-002])
T1 construct: host or cells: HEK293
T1 sequence (Q9NVM4 1-692): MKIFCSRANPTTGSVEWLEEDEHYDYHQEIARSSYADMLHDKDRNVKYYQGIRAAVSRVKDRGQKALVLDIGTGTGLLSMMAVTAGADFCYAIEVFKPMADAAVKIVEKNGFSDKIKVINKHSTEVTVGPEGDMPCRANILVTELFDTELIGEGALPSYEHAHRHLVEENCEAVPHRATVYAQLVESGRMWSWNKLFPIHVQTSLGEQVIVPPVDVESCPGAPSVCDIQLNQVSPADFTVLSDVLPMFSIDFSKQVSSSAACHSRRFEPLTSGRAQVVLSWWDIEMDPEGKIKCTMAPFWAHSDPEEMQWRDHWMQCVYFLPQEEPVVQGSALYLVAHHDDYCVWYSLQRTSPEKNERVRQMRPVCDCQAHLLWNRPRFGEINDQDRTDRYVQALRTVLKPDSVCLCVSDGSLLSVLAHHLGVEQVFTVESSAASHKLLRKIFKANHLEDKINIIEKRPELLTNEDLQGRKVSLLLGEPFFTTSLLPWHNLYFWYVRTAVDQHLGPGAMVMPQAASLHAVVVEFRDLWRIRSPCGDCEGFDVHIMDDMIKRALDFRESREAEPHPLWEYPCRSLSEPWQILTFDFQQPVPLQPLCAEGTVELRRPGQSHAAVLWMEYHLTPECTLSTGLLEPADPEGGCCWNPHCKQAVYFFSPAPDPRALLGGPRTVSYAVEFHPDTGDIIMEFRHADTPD
Procedure: HEK293 cells (ATCC) were cultured in DMEM (Thermo Fisher) + 10% (v/v) FBS (Seredigm), and HCT116 cells (Horizon Discovery, #PAR-034 and #R02-033) were cultured in McCoy’s 5A (Thermo Fisher) + 10% FBS, with incubation in a humidified, 37 °C/5% CO2 incubator. Cells were split 1–3 days prior to performing experiments and used at roughly 80% confluency. […] Cells were transfected according to the manufacturer’s protocol using FuGENE HD (Promega). NanoLuc fusion DNA was diluted into Transfection Carrier DNA (Promega) in Opti-MEM at a ratio of 1:9 (mass/mass), and FuGENE HD was added at a ratio of 1:3 (μg DNA:μL lipid). For experiments using WDR77, untagged WDR77 DNA (Promega) was used in place of Carrier DNA. Formed complexes were combined with cells resuspended to a density of 2 × 10^5 cells/mL in Opti-MEM + 1% FBS at a ratio of 1:20 (vol:vol). Cells were plated into a flask and incubated at 37 °C in a humidified 5% CO2 atmosphere for 18–24 h, before being lifted and seeded into 96-well non-binding surface-treated plates (Corning). Cells were seeded at a density of 2 × 10^5 cells/mL in Opti-MEM + 1% FBS in 100 μL (96-well). The BRET probe CBH-002 was prepared first as a 100× stock in 100% DMSO (Sigma) and then diluted to a 20× stock in NanoBRET Tracer Dilution buffer (Promega). Test compounds were prepared as 1000× stocks in 100% DMSO and diluted to 10× stocks in Opti-MEM to prepare working stocks. […] NanoBRET Complete 3x Substrate was prepared by combining Nano-Glo Substrate and Extracellular NanoLuc Inhibitor in Opti-MEM, according to the manufacturer’s protocol (Promega). NanoBRET Complete 3× Substrate was added to cells and plates were measured on either a PheraSTAR FSX equipped with 450 nm (donor) and 610 nm (acceptor) filters, or a GloMAX Discover equipped with 450/8 nm BP (donor) and 600 nm LP (acceptor) filters, using a 0.3 s integration time.
EC50 values were obtained by fitting the BRET probe and compound affinity curves to a sigmoidal four-parameter fit model in Graphpad Prism:1 Y=Ymin+Ymax−Ymin/1+10^LogEC50−Xh where h is the Hill Slope.

NLuc-PRMT5 = NLuc-PRMT5 (Homo sapiens, UniProt O14744); assay: BRET probe CBH-002 binding kinetics (association, dissociation by GSK3326595) in live HEK293 cells; type: cell-based; parameters: host or cells: HEK293 (live cells; digitonin lysate for the SAM titration); Tracer association (Figure S3C): unit not given here
Procedure: To determine BRET probe binding kinetics, live HEK293 cells were treated with 30 nM CBH-002 and BRET measurements were read in 3 min intervals for 2 h at room temperature.

Chain of NLuc-PRMT5 (O14744 whole entry): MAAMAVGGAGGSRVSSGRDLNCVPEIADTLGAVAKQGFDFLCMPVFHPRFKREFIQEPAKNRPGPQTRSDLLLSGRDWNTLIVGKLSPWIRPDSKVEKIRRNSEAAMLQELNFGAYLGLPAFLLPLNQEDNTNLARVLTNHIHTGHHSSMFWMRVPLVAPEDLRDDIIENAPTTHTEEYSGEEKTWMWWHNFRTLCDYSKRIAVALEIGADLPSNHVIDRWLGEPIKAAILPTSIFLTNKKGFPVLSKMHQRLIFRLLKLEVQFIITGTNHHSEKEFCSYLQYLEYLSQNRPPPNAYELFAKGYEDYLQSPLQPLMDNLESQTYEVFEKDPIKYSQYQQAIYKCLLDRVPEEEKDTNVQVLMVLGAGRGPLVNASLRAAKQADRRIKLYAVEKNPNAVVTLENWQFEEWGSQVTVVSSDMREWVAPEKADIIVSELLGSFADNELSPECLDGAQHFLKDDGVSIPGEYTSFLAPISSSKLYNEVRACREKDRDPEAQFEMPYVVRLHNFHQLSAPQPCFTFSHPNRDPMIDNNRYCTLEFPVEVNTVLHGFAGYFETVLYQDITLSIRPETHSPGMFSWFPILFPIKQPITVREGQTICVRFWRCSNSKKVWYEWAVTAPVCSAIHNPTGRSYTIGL
Chain of NLuc-PRMT5 (Q9BQA1 whole entry partner): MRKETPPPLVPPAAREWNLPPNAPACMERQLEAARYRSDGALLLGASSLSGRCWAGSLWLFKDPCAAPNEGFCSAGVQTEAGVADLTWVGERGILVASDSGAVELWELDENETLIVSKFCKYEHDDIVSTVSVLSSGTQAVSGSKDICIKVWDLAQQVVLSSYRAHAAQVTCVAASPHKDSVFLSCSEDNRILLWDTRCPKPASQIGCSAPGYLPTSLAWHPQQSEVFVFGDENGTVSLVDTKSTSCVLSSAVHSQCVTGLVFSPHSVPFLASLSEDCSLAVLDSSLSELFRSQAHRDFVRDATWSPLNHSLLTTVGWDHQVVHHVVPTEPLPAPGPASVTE

With O=C(CCc1ccc2n1[B-](F)(F)[N+]1=C(c3ccc[nH]3)C=CC1=C2)NCCCCC(=O)N1CCC(Nc2cc(C(=O)NC[C@H](O)CN3CCc4ccccc4C3)ncn2)CC1 [CBH-002] the “BRET, CBH-002 + DMSO” value (PRMT7; uM 0.04576) was 3.118 and 3.169 and 3.222, the “BRET, CBH-002 + GSK3326595” value (PRMT7; uM 0.04576) was 2.264 and 3.024 and 2.623 and the “BRET, CBH-002 + DMSO” value (PRMT7; uM 0.52288) was 4.4157 and 4.315 and 4.82. For the same molecule, the “BRET, CBH-002 + GSK3326595” value (PRMT7; uM 0.52288) was 4.289 and 4.449 and 4.432, the “BRET, CBH-002 + DMSO” value (PRMT7; uM 1) was 6.788 and 6.4376 and 8.0011 and the “BRET, CBH-002 + GSK3326595” value (PRMT7; uM 1) was 6.64 and 6.225 and 5.521. The “BRET, CBH-002 + DMSO” value (PRMT7; uM -0.43136) was 2.545 and 2.3934 and 2.684, the “BRET, CBH-002 + GSK3326595” value (PRMT7; uM -0.43136) was 2.418 and 2.903 and 2.394 and the “BRET, CBH-002 + DMSO” value (PRMT7; uM -0.90849) was 2.174 and 2.245 and 2.2. For the same molecule, the “BRET, CBH-002 + GSK3326595” value (PRMT7; uM -0.90849) was 2.014 and 2.113 and 2.172, the “BRET, CBH-002 + DMSO” value (PRMT7; uM -1.20952) was 2.33 and 1.992 and 2.793 and the “BRET, CBH-002 + GSK3326595” value (PRMT7; uM -1.20952) was 1.945 and 2.184 and 2.019. The “BRET, CBH-002 + DMSO” value (PRMT7; uM -1.68664) was 2.292 and 2.046 and 2.033, the “BRET, CBH-002 + GSK3326595” value (PRMT7; uM -1.68664) was 2.038 and 1.973 and 2.006 and the “BRET, CBH-002 + DMSO” value (PRMT7; uM -1.98767) was 1.964 and 2.061 and 2.054. For the same molecule, the “BRET, CBH-002 + GSK3326595” value (PRMT7; uM -1.98767) was 1.921 and 2.272 and 1.954, the “BRET, CBH-002 + DMSO” value (PRMT7; uM -2.46479) was 2.032 and 2.041 and 2.0419 and the “BRET, CBH-002 + GSK3326595” value (PRMT7; uM -2.46479) was 2.119 and 2.05 and 2.0804. For the same molecule, the “BRET, CBH-002 + DMSO” value (PRMT7; uM -2.94191) was 1.985 and 2.058 and 2.072, the “BRET, CBH-002 + GSK3326595” value (PRMT7; uM -2.94191) was 1.954 and 1.961 and 1.971 and the “CBH-002 engagement at PRMT7” value (PRMT7; HEK293, PRMT7-NL) was “did not show engagement”. The “Tracer association (Figure S3C)” value (NLuc-PRMT5; Time (min) -27) was 84.20 and 89.90 and 88.10 and 83.20, the “Tracer association (Figure S3C)” value (NLuc-PRMT5; Time (min) -30) was 82.70 and 89.80 and 85.50 and 82.10 and the “Tracer association (Figure S3C)” value (NLuc-PRMT5; Time (min) -33) was 82.30 and 86.20 and 84.70 and 81.40. For the same molecule, the “Tracer association (Figure S3C)” value (NLuc-PRMT5; Time (min) -36) was 79.10 and 84.40 and 82.30 and 79.90, the “Tracer association (Figure S3C)” value (NLuc-PRMT5; Time (min) -39) was 78.00 and 83.20 and 80.40 and 77.80 and the “Tracer association (Figure S3C)” value (NLuc-PRMT5; Time (min) -42) was 74.70 and 81.80 and 78.20 and 76.90. For the same molecule, the “Tracer association (Figure S3C)” value (NLuc-PRMT5; Time (min) -45) was 72.40 and 79.70 and 77.50 and 73.60, the “Tracer association (Figure S3C)” value (NLuc-PRMT5; Time (min) -48) was 71.50 and 77.50 and 73.90 and 72.30 and the “Tracer association (Figure S3C)” value (NLuc-PRMT5; Time (min) -51) was 70.80 and 74.30 and 71.70 and 69.80. The “Tracer association (Figure S3C)” value (NLuc-PRMT5; Time (min) -54) was 67.60 and 72.60 and 69.10 and 66.30, the “Tracer association (Figure S3C)” value (NLuc-PRMT5; Time (min) -57) was 64.20 and 69.60 and 66.90 and 64.40 and the “Tracer association (Figure S3C)” value (NLuc-PRMT5; Time (min) -60) was 62.40 and 67.20 and 64.20 and 62.00. For the same molecule, the “Tracer association (Figure S3C)” value (NLuc-PRMT5; Time (min) -63) was 58.70 and 64.40 and 60.70 and 59.40, the “Tracer association (Figure S3C)” value (NLuc-PRMT5; Time (min) -66) was 56.10 and 60.10 and 57.50 and the “Tracer association (Figure S3C)” value (NLuc-PRMT5; Time (min) -69) was 53.40 and 56.10 and 54.60 and 53.80. The “Tracer association (Figure S3C)” value (NLuc-PRMT5; Time (min) -72) was 50.10 and 53.80 and 51.80, the “Tracer association (Figure S3C)” value (NLuc-PRMT5; Time (min) -75) was 46.70 and 49.90 and 47.90 and 46.40 and the “Tracer association (Figure S3C)” value (NLuc-PRMT5; Time (min) -78) was 43.20 and 46.00 and 44.30 and 42.50. The “Tracer association (Figure S3C)” value (NLuc-PRMT5; Time (min) -81) was 39.30 and 42.30 and 40.80 and 39.10, the “Tracer association (Figure S3C)” value (NLuc-PRMT5; Time (min) -84) was 36.10 and 38.40 and 35.80 and the “Tracer association (Figure S3C)” value (NLuc-PRMT5; Time (min) -87) was 31.70 and 33.50 and 32.20 and 31.50. The “Tracer association (Figure S3C)” value (NLuc-PRMT5; Time (min) -90) was 27.90 and 29.40 and 28.10 and 27.70, the “Tracer association (Figure S3C)” value (NLuc-PRMT5; Time (min) -93) was 22.90 and 24.80 and 24.00 and 23.50 and the “Tracer association (Figure S3C)” value (NLuc-PRMT5; Time (min) -96) was 18.60 and 20.70 and 19.20. For the same molecule, the “Tracer association (Figure S3C)” value (NLuc-PRMT5; Time (min) -99) was 13.20 and 15.60 and 14.50, the “Tracer association (Figure S3C)” value (NLuc-PRMT5; Time (min) -102) was 7.40 and 9.50 and 8.80 and 9.10 and the “Time for BRET biosensor to reach equilibrium” value (NLuc-PRMT5; live cells, room temperature, 30 nM CBH-002) was ~ 2 h.
